Here are results for three compounds from PMC9388626, “STUB1 is an intracellular checkpoint for interferon gamma sensing” (Scientific Reports, 2022).

For orientation: Kd means the free concentration of one partner at which half of the binding sites on the other are occupied at equilibrium, for simple one-to-one binding. The term ΔTm denotes the change in melting temperature against a reference sample. Usually IC50 stands for the concentration that inhibits the measured activity by half. Read a low IC50 as higher potency.

Peptide text beside a SMILES is read from it.

Experiment [1] addresses T1, STUB1 (aa25–aa153) (Homo sapiens, UniProt Q9UNE7).
T1 sequence (Q9UNE7 25-153): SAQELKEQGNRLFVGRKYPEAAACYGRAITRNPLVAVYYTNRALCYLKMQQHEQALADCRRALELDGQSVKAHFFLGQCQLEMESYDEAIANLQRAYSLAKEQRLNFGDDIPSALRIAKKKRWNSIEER
The experiment can be described thus: Isothermal titration calorimetry. Type of experiment: binding. To be noted: ITC. The protocol: Recombinant STUB1 protein, spanning aa25-aa153, was produced by Nanyang Technological University protein production platform. The purity and identity of the protein was confirmed by mass spectrometry and SDS-PAGE. Synthetic peptides, in a form of N-acetylation and free C-terminal carboxylic acid, were custom made by Chinese Peptide Company (CPC). The purity and identity of the peptides were confirmed by analytic HPLC (≥ 95% purity) and mass spectrometry. Peptides are dissolved in neat DMSO as 10 mM stock solution and diluted thereof for subsequent experiments.
Recombinant STUB1 protein (aa25-aa153) was dialyzed overnight with Slide-A-Lyzer cassette (7 K MWCO, Thermo Scientific, #66373) in 1 L of dialysis buffer (PBS, pH 7.4, 0.5 mM TCEP). The dialyzed protein solution was centrifuged at 15,000 rpm for 10 min at 4 °C to remove potential precipiates. The protein was diluted to 20 µM using the dialysis buffer, followed by the additon of DMSO spike-in (2% final concentration). The synthetic peptides (10 mM in DMSO) were diluted to 200 µM with the dialysis buffer (2% final DMSO concentration). ITC measurements were performed at 25 °C using a Microcal PEAQ-ITC (Malvern Panalytical Inc). An initial injection of 0.4 µl followed by a total of 39 injections of peptide solution (1 µl, 200 µM) were added at an intervals of 2 min into the protein solution (20 µM) while stirring at 750 rpm. The data point produced by the first injection was discarded prior to curve fitting in order to account for the diffusion effect during the equilibration process. The experimental data were fitted to a non-interacting one-site binding model using the analysis software supplied by Microcal, with ΔH (enthalpy change), Ka (association constant) and N (number of binding sites per monomer) as adjustable parameters. Free energy change (ΔG) and entropy contributions (TΔS) were determined from the standard equation: ΔG = ΔH − TΔS = − RT lnKa, where T is the absolute temperature and R = 1.987 cal mol^−1 K^−1.
On the technique in general: ITC needs no label: the signal is the heat of the interaction.

In a further experiment the test system is STUB1 (aa25-aa153). The experiment can be described thus: Thermal shift assay (SYPRO Orange). Format: binding. As to conditions: 100 µM peptide, 10 µM protein, relative to DMSO vehicle, mean ± s.d. from three independent experiments. An excerpt: The SYPRO Orange fluorescent dye (Invitrogen) was used to measure the thermal stability of recombinant STUB1 protein (aa25-aa153). With increasing temperature, binding of the dye molecule to the hydrophobic region of the denatured STUB1 results in an increase in the fluorescence intensity. The midpoint of this transition is termed the Tm. Binding of a ligand, such as peptide, stabilizes the protein and results in a melting temperature shift (ΔTm), which correlates with the binding affinity of the ligand. The thermal shift assay was conducted in a CFX96 real-time PCR detection system (Bio-Rad). A total of 50 µl mixture containing 3.125 × SYPRO Orange (Invitrogen, diluted from 5000 × DMSO stock), 100 µM peptide of interest, and 10 µM protein was prepared in a PCR 8-well strip tube. The samples were heated from 25 to 95 °C in 0.5 °C increment each cycle. The holding time for each cycle is 5 s, after which the fluorescence intensity was measured in Channel 2 (HEX) with Ex/Em: 515–535/560–580 nm. Each independent experiment was performed in technical duplicates.

The target of experiment [2] is T1, STUB1 (aa25–aa153). The experiment can be described thus: Competitive fluorescence polarization assay. Type of experiment: binding. As to conditions: 15 nM 5-FAM-[…] tracer, 1 µM STUB1, PBS pH 7.4, 0.01% Tween 20, room temperature, 30 min; mean ± s.e., six replicates from two independent experiments. The protocol: The assays were performed at room temperature using assay buffer (PBS, pH 7.4, 0.01% v/v Tween 20) and black 384-well non-binding polystyrene microplate (Greiner Bio-one, #784900). The peptide of interest was first diluted (10-point, threefold serial dilution) with the assay buffer on the microplate to have a volume of 10 µl in each well. This was followed by the addition of 10 µl mixture containing 5-FAM-[…]-CO2H (30 nM) and the recombinant STUB1 protein (2 µM). The final assay solution (20 µl) contains 5-FAM-labeled tracer peptide (15 nM), protein (1 µM) and peptide of interest (5 nM to 100 µM). After 30 min incubation in the dark, the microplate was read with TECAN Infinite M1000 PRO (Ex: 470 nm, Em: 520 nm, bandwidth: 5 nm, G-factor = 1.05, gain: optimal, #flashes = 10, settle time = 0 ms, z position: calculated from well). Value of polarization (mP) = 1000 × (G × intensity‖ − intensity ⊥ )/(G × intensity‖ + intensity ⊥ ). Half maximal inhibitory concentration (IC50) was determined by fitting the curve using 4-parameter sigmoidal function in GraphPad Prism. Each independent experiment was performed in technical triplicates.
(In general: Polarisation of emitted light reports the rotation of a fluorescent probe.)

The next experiment relates to B16-F10 cells. Briefly: Flow cytometry, surface IFNGR1, mCherry2-peptide stable cells. Type of experiment: cell-based, murine. As to conditions: stable expression; resting and IFNγ-stimulated (mouse IFNγ 0.03 ng ml^−1, 24 h). The text has this:
(§1) To generate the plasmids, gBlocks gene fragments (IDT) encoding the inhibitory biologic (FLAG-mCherry2-GGSGGS-SIWWPD) and the control biologic (FLAG-mCherry2-GGSGGS-SIWWHR) were cloned into pEF6 vector (Thermo Fisher Scientific) by standard restriction enzyme digestion and T4 DNA ligation. The final constructs were verified by Sanger sequencing. Coding sequences of the constructs are provided in Supplementary Table S5. To generate the stable cell lines, a total of 2 × 10^5 B16-F10, A375 or A549 cells were electroporated with 200 ng plasmid using DJ-110, FF-120 or CM-130 respectively—the preset programmed in 4D-nucleofector system (Lonza). The preparation of the cell suspension and the process of the electroporation are similar to that described in the CRISPR method section. The stable cell lines were selected using 10 µg ml^−1 blasticidin three days post-electroporation and were maintained in 5 µg ml^−1 blasticidin once the stable colonies were established. […]
(§2) Cells were dissociated from the wells with 0.25% trypsin (Gibco, 25200056). […] Cells were analyzed on LSRFortessa X-20 (BD Biosciences) with appropiate fluorescence compensation. The data were analyzed using FlowJo. […]
In general terms: Flow cytometry measures light scatter and fluorescence of single cells or particles in a stream.

Experiment [3] deals with A375 cells. The experiment can be described thus: Flow cytometry, surface MHC-I, mCherry2-peptide stable cells. As to conditions: A375, stable expression; human IFNγ 0.01 ng ml^−1, 24 h. Format: cell-based.
Description: as §1, §2

Experiment [4] has as its system A549 cells. Described as above. Format: cell-based. To be noted: A549, stable expression; human IFNγ 0.01 ng ml^−1, 24 h.
Description: as §1, §2

For experiment [5], the system named is STUB1. The experiment can be described thus: Co-immunoprecipitation of FLAG-mCherry2-peptide and STUB1. Format: binding, murine. The protocol: B16-F10 cells stably expressing the biologic were harvested, rinsed with PBS, and lysed with chilled cell lysis buffer (Cell Signaling Technology, #9803) supplemented with Halt protease inhibitor cocktail (Life Technologies, #78430) and phosphatase inhibitor (Sigma-Aldrich, # 4906837001). Cellular lysates were clarified by centrifugation at 15,000 rpm at 4 °C for 15 min. Protein concentration was determined using BCA protein assay kit (Pierce, #23225). For each sample of the co-immunoprecipitation (co-IP), 20 µl of anti-FLAG magnetic beads (Sigma-Aldrich, M8823) was rinsed twice with 0.2 ml PBS, followed by addition of 500 µl diluted cellular lysate (60 µg, 0.12 µg µl^−1). For competitive inhibition, synthetic peptide (SIWWPD) was added into the co-IP mixture. The resulting mixture was rotated at room temperature for 4 h, after which the beads were rinsed with 3 × 0.5 ml PBS to remove the unbound proteins. Bound protein complexes were directly eluted with a 20 µl solution of LDS sample buffer (Life Technologies, NP0008) supplemented with sample reducing agent (Life Technologies, NP0009), followed by heating at 70 °C for 10 min. […] Blotting was similar to the Western Blot section described above. Primary antibodies used were: STUB1/CHIP (Cell Signaling Technology, #2080, 1:1000 dilution), FLAG (Sigma-Aldrich, F1804, 1:1000 dilution). […]

Experiment [6] concerns A375 cells. The experiment can be described thus: Flow cytometry, surface IFNGR1, mCherry2-peptide stable cells. Type of experiment: cell-based. As to conditions: A375, stable expression; untreated or human IFNγ 0.01 ng ml^−1, 24 h.
Description: as §1, §2

The subject of experiment [7] is A549 cells. The experiment is described as above. Format: cell-based. To be noted: A549, stable expression; untreated or human IFNγ 0.01 ng ml^−1, 24 h.
Description: as §1, §2

The subject of experiment [8] is STUB1. Also on record: method as in PMID 31320752. As to conditions: cited from earlier work.

Turning to `CC[C@H](C)[C@H](NC(=O)[C@H](CO)NC(C)=O)C(=O)N[C@@H](Cc1c[nH]c2ccccc12)C(=O)N[C@@H](Cc1c[nH]c2ccccc12)C(=O)N[C@@H](Cc1c[nH]cn1)C(=O)N[C@@H](CCCNC(=N)N)C(=O)O` [SIWWHR] (Ac-SIWWHR-OH), on STUB1 (aa25–aa153) [1], the “Binding to STUB1” value is listed as “non-binding”. Besides, at STUB1 (aa25–aa153) [1] (PBS pH 7.4, 0.5 mM TCEP, 2% DMSO, 25 °C, 200 µM peptide into 20 µM protein), the Kd was > 10 µM. The ΔTm in the experiment with STUB1 (aa25-aa153) is -0.1 ± 0.2 °C. For the same compound, the IC50 on STUB1 (aa25–aa153) [2] is > 100 µM.

mCherry2-SIWWPD: the “Cell surface IFNGR1” value was “upregulation of IFNGR1 on the cell surface of B16-F10, under both resting and IFNγ-stimulating conditions” in the experiment on B16-F10 cells; “also resulted in the same phenotype” with A375 cells [6]; “also resulted in the same phenotype” with A549 cells [7]. The “Cell surface MHC-I” value with A375 cells [3] and in the experiment on A549 cells [4] was “boost the surface levels of MHC-I in response to IFNγ” in each case. In the experiment with STUB1 [5] (B16-F10 lysate, anti-FLAG), the “Co-precipitation of STUB1” value was “STUB1 was co-precipitated”.

As to `CC[C@H](C)[C@H](NC(=O)[C@H](CO)NC(C)=O)C(=O)N[C@@H](Cc1c[nH]c2ccccc12)C(=O)N[C@@H](Cc1c[nH]c2ccccc12)C(=O)N1CCC[C@H]1C(=O)N[C@@H](CC(=O)O)C(=O)O` [SIWWPD, reference compound] (Ac-SIWWPD-OH), the “Reversal of co-immunoprecipitation by synthetic peptide” value in the experiment with STUB1 [5] (spiked into co-IP mixture, room temperature, 4 h) is “completely reversible in a dose-dependent manner”. For the same compound, in the experiment with STUB1 [8], the “Blocking of STUB1 interaction with HSPA8” value was “capable of blocking the interaction of STUB1 with HSPA8”. Further, the “Binding to STUB1” value at STUB1 (aa25–aa153) [1] is listed as “bound strongly to the protein”. Also, the ΔTm in the experiment on STUB1 (aa25-aa153) came to 18.3 ± 0.1 °C.
